According to patent US20210378193A1, “HAPLOID EMBRYOGENESIS” (STICHTING WAGENINGEN RESEARCH, priority 2013, published 2021):

System: B. napus DH 12075 microspore-derived embryos
Assay: conversion of microspore-derived embryos to seedlings (roots, shoots)
Assay type: cell-based, Brassica napus
Conditions: embryos transferred to regeneration medium
Text: All of the embryos that produced roots, except for the short embryo type, initiated root development from the root meristem, as evidenced by the development of roots within a few days of growth on germination medium.
In FIG. 12B, different types of embryos derived from different populations of microspores/pollen treated with DMSO (control) or different concentrations of HDACi were transferred to a regeneration medium and evaluated for their ability to produce shoots (a measure of conversion).

Compound: O=C(CCCCCCC(=O)Nc1ccccc1)NO [SAHA, suberoylanilide hydroxamic acid]
- germination (ability to produce shoots, a measure of conversion) compared to the control: improved
